Numbered stars: 1 amine (or outer) side, 2 acyl side, 3 side chain; on linkers, the order of the positions; unused ones are H or OH. Bridge positions count the residues as written; N and C are the ends. Square brackets hold non-standard residues; d marks the D form. Side chains are listed from the residue outwards. Peptide text beside a SMILES is read from it. * marks the point of attachment. C18 diacid = O=C(O)CCCCCCCCCCCCCCCCC(=O)*; γGlu = O=C(O)[C@H](CCC(=O)[*:2])N[*:1]; AEEA = NCCOCCOCC(=O)O; Aib = CC(C)(N)C(=O)O

Results on 4 compounds are retold here after patent US20240067693A1, “POLYPEPTIDES AND USES THEREOF” (MEDIMMUNE LIMITED, priority 2020, published 2024).

For data set [1], the target named is T1, human calcitonin receptor (hCTR) (Homo sapiens, UniProt P30988).
T1 construct: expressed in transfected cells
T1 sequence (P30988 25-474): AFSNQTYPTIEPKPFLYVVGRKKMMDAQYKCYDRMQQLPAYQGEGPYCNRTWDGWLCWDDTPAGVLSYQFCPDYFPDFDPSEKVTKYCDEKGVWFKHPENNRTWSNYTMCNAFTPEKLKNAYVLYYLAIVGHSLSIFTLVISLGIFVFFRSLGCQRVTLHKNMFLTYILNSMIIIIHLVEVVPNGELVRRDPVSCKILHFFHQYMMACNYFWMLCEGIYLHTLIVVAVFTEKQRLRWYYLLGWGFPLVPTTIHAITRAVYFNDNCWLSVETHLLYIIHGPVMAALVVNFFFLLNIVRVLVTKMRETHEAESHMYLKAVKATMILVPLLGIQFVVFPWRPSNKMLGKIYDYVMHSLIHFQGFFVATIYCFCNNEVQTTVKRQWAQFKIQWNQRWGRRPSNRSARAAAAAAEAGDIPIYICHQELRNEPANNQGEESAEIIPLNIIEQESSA
Nature of the data set: cAMP production in 1321N1 cells with stable recombinant expression of human calcitonin receptor (hCTR). The class given is cell-based. As to conditions: cAMP, 1321N1 cells, assay buffer with 0.1% BSA; read-out: EC50 (pM) hCTR. In short, it runs like this:
(§1)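 Thawed cells in HBSS/0.1% BSA/25 mM HEPES pH 7.4 with 0.5 mM IBMX were incubated with peptides 30 min at room temperature; cAMP read by HTRF. EC50 from 4-parameter fit of % activation relative to maximal amylin or calcitonin effect.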

The nature of data set [2]: in vivo. As to conditions: male, Sprague-Dawley, rat, 20 nmol/kg.
Description: PK studies were performed to determine the half-life (T1/2) of test peptides. T1/2 describes the time taken for the maximum plasma concentration (Cmax) of a test substance to halve its steady-state concentration when in circulation.
Male SD rats were purchased from Si Bei Fu Laboratory Animal Technology Co. Ltd (China). The animals were 6-8 weeks old with body weights of 200-300 g on the dosing date. The animals were housed in a 12-hour light/12-hour dark cycle environment and were fasted overnight before dosing. The body weight of the animals were recorded before dosing, 24 h and 48 h post dosing . Animals had free access to food and drinks, and the food consumption was quantified every day.
Test articles were administered at 20 nmol/kg. Blood samples were collected from each animal via Jugular vein.
The blood samples were transferred into eppendorf low binding tube containing K2 EDTA. Above 0.150 mL blood were collected at each time point. Blood samples were centrifuged at 4,000 g for 5 minutes at 4° C. to obtain plasma. The plasma samples were stored frozen at −75±15° C. until analysis.
Concentrations of the test articles in the plasma samples were analyzed using a LC-MS/MS method. Data acquisition was performed by LabSolution version 5.89 software (Shimadzu, Kyoto, Japan). Data statistics were performed using Excel 97-2003 software. The pharmacokinetic parameters of test articles were calculated using a non-compartmental approach with Phoenix™ VVinNonlin® 6.1.
The following pharmacokinetic parameters were calculated, whenever possible from the plasma concentration versus time data: • IV administration: T1/2, C0, AUClast, AUCinf, MRTinf, Cl, Vss, Number of Points for Regression. • SC administration: Tmax, Cmax, AUClast, AUCinf, MRTinf, F, Number of Points for Regression.
The nature of data set [3]: Thioflavin T fibrillation assay. In kind it is physicochemical. The note with it: for Time taken to detect increase in fluorescence intensity: ThT fibrillation assay, peptide 1 mg/mL in 25 mM sodium acetate buffer pH 4.0, 6 days at 37 °C with shaking, >144 h = no increase; for fibril-forming tendency: ThT assay, 1 mg/mL, pH 4.0, 37 °C, compared to pramlintide. In short, it runs like this: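 Peptides at 1 mg/mL in 25 mM sodium acetate pH 4.0 with ThT (from 0.25 mM stock), incubated 6 days at 37 °C with intermittent orbital shaking at 500–750 rpm. Fluorescence (ex 444/em 480 nm) read every 30 min; value is average time to a rise in baseline-corrected signal.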

The target of data set [4] is T2, human amylin receptor (calcitonin receptor co-expressed with receptor activity modifying protein, RAMP3) (hAMYR3) (Homo sapiens, UniProt O60896+P30988).
T2 construct: expressed in transfected cells
T2 sequence (P30988 25-474): T1 sequence (P30988 25-474)
T2 sequence (O60896 24-148 partner): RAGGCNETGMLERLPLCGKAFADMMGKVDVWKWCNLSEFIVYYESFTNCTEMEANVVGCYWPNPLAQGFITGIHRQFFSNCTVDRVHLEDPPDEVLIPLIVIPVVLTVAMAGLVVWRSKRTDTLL
Description: cAMP production in 1321N1 cells with stable recombinant expression of human amylin receptor (hAMYR3). The class given is cell-based. As to conditions: for Ratio (selectivity hAMYR vs hCTR, ratio of EC50 values at the two receptors): EC50 hCTR / EC50 hAMYR3; for EC50: cAMP, 1321N1 cells, assay buffer with 0.1% BSA, read-out: EC50 (pM) hAMYR3. In short, it runs like this: as §1

Take `CC[C@H](C)[C@H](NC(=O)[C@@H]1CCCN1C(=O)CNC(=O)[C@H](Cc1ccccc1)NC(=O)[C@H](CC(N)=O)NC(=O)C(C)(C)NC(=O)[C@H](CO)NC(=O)[C@H](CO)NC(=O)[C@H](Cc1c[nH]cn1)NC(=O)[C@@H](NC(=O)[C@H](CC(C)C)NC(=O)[C@H](Cc1ccccc1)NC(=O)[C@H](CC(N)=O)NC(=O)[C@H](C)NC(=O)[C@H](CC(C)C)NC(=O)[C@H](CCCNC(=N)N)NC(=O)[C@H](CCC(N)=O)NC(=O)[C@@H](NC(=O)[C@H](C)NC(=O)[C@@H]1CSSC[C@H](NC(=O)[C@H](CCCCN)NC(=O)[C@@H](N)CCCCNC(=O)CC[C@H](NC(=O)CCCCCCCCCCCCCCCCC(=O)O)C(=O)O)C(=O)N[C@@H](CC(N)=O)C(=O)N[C@@H]([C@@H](C)O)C(=O)N[C@@H](C)C(=O)N[C@@H]([C@@H](C)O)C(=O)N1)[C@@H](C)O)C(C)C)C(=O)N[C@@H](CC(C)C)C(=O)N1CCC[C@H]1C(=O)N1CCC[C@H]1C(=O)N[C@H](C(=O)NC(C)(C)C(=O)N[C@H](C(=O)NCC(=O)N[C@@H](CO)C(=O)N[C@@H](CC(N)=O)C(=O)N[C@H](C(=O)N[C@@H](Cc1ccc(O)cc1)C(N)=O)[C@@H](C)O)C(C)C)[C@@H](C)O` [Peptide 80, K(γE-C18diacid)K[CNTATC]ATQRLANFLVHSS(Aib)NFGPILPPT(Aib)VGSNTY-amide] (H-K([γGlu-C18 diacid])KCNTATCATQRLANFLVHSS[Aib]NFGPILPPT[Aib]VGSNTY-NH2; disulfide 3-8; N-terminus assumed): the EC50 was found to be 2970 pM in data set [1] and 407 pM in data set [4]. Further, the figures for the half-life in data set [2] (iv) and in data set [2] (sc) were 9.7 h and 9.9 h, respectively. Moreover, the “Time taken to detect increase in fluorescence intensity” value (“Time taken to detect increase” below) in data set [3] is listed as more than 144 h. In addition, the “Ratio (selectivity hAMYR vs hCTR, ratio of EC50 values at the two receptors)” value in data set [4] is on record as 7.

In the case of `CC[C@H](C)[C@H](NC(=O)[C@@H]1CCCN1C(=O)CNC(=O)[C@H](Cc1ccccc1)NC(=O)[C@H](CC(N)=O)NC(=O)[C@H](CC(N)=O)NC(=O)[C@H](CO)NC(=O)[C@H](CO)NC(=O)[C@H](Cc1c[nH]cn1)NC(=O)[C@@H](NC(=O)[C@H](CC(C)C)NC(=O)[C@H](Cc1ccccc1)NC(=O)[C@H](CC(N)=O)NC(=O)[C@H](C)NC(=O)[C@H](CC(C)C)NC(=O)[C@H](CCCNC(=N)N)NC(=O)[C@H](CCC(N)=O)NC(=O)[C@@H](NC(=O)[C@H](C)NC(=O)[C@@H]1CSSC[C@H](NC(=O)[C@H](CCCCN)NC(=O)CNC(=O)CNC(=O)CNC(=O)CC[C@H](NC(=O)CC[C@H](NC(=O)CCCCCCCCCCCCCCCCC(=O)O)C(=O)O)C(=O)O)C(=O)N[C@@H](CC(N)=O)C(=O)N[C@@H]([C@@H](C)O)C(=O)N[C@@H](C)C(=O)N[C@@H]([C@@H](C)O)C(=O)N1)[C@@H](C)O)C(C)C)C(=O)N[C@@H](CC(C)C)C(=O)N1CCC[C@H]1C(=O)N1CCC[C@H]1C(=O)N[C@H](C(=O)N[C@@H](CC(N)=O)C(=O)N[C@H](C(=O)NCC(=O)N[C@@H](CO)C(=O)N[C@@H](CC(N)=O)C(=O)N[C@H](C(=O)N[C@@H](Cc1ccc(O)cc1)C(N)=O)[C@@H](C)O)C(C)C)[C@@H](C)O` [Peptide 4] ({C18 diacid-γGlu-γGlu}-GGGKCNTATCATQRLANFLVHSSNNFGPILPPTNVGSNTY-NH2; disulfide 5-10), the EC50 in data set [1] was 7530 pM; in data set [4], 248 pM. For the same compound, the half-life in data set [2] (iv) and in data set [2] (sc) was 12 h each time. In addition, the fibril-forming tendency entry in data set [3] is recorded as “increases the fibril-forming tendency”. In data set [3], the “Time taken to detect increase” value is less than 5 h. Further, the “Ratio (selectivity hAMYR vs hCTR, ratio of EC50 values at the two receptors)” value in data set [4] turned out to be 30.

Consider `CC[C@H](C)[C@H](NC(=O)[C@@H]1CCCN1C(=O)CNC(=O)[C@H](Cc1ccccc1)NC(=O)[C@H](CC(N)=O)NC(=O)C(C)(C)NC(=O)[C@H](CO)NC(=O)[C@H](CO)NC(=O)[C@H](Cc1c[nH]cn1)NC(=O)[C@@H](NC(=O)[C@H](CC(C)C)NC(=O)[C@H](Cc1ccccc1)NC(=O)[C@H](CC(N)=O)NC(=O)[C@H](C)NC(=O)[C@H](CC(C)C)NC(=O)[C@H](CCCNC(=N)N)NC(=O)[C@H](CCC(N)=O)NC(=O)[C@@H](NC(=O)[C@H](C)NC(=O)[C@@H]1CSSC[C@H](NC(=O)[C@H](CCCCN)NC(=O)[C@@H](N)CCCCNC(=O)CC[C@H](NC(=O)CC[C@H](NC(=O)CCCCCCCCCCCCCCCCC(=O)O)C(=O)O)C(=O)O)C(=O)N[C@@H](CC(N)=O)C(=O)N[C@@H]([C@@H](C)O)C(=O)N[C@@H](C)C(=O)N[C@@H]([C@@H](C)O)C(=O)N1)[C@@H](C)O)C(C)C)C(=O)N[C@@H](CC(C)C)C(=O)N1CCC[C@H]1C(=O)N1CCC[C@H]1C(=O)N[C@H](C(=O)N[C@@H](CCCNC(=N)N)C(=O)N[C@H](C(=O)NCC(=O)N[C@@H](CO)C(=O)N[C@@H](CC(N)=O)C(=O)N[C@H](C(=O)N[C@@H](Cc1ccc(O)cc1)C(N)=O)[C@@H](C)O)C(C)C)[C@@H](C)O` [Peptide 70, K(γE-γE-C18diacid)K[CNTATC]ATQRLANFLVHSS(Aib)NFGPILPPTRVGSNTY-amide] (H-K([γGlu-γGlu-C18 diacid])KCNTATCATQRLANFLVHSS[Aib]NFGPILPPTRVGSNTY-NH2; disulfide 3-8; N-terminus assumed), for which the EC50 in data set [1] amounted to 5400 pM; in data set [4] it was 235 pM. Also, the half-life in data set [2] (iv) is 10.3 h; in data set [2] (sc), 12.5 h. The “Time taken to detect increase” value in data set [3] was more than 144 h. Besides, the “Ratio (selectivity hAMYR vs hCTR, ratio of EC50 values at the two receptors)” value in data set [4] is given as 23.

For `CC[C@H](C)[C@H](NC(=O)[C@@H]1CCCN1C(=O)CNC(=O)[C@H](Cc1ccccc1)NC(=O)[C@H](CC(N)=O)NC(=O)[C@H](CC(N)=O)NC(=O)[C@H](CO)NC(=O)[C@H](CO)NC(=O)[C@H](Cc1c[nH]cn1)NC(=O)[C@@H](NC(=O)[C@H](CC(C)C)NC(=O)[C@H](Cc1ccccc1)NC(=O)[C@H](CC(N)=O)NC(=O)[C@H](C)NC(=O)[C@H](CC(C)C)NC(=O)[C@H](CCCNC(=N)N)NC(=O)[C@H](CCC(N)=O)NC(=O)[C@@H](NC(=O)[C@H](C)NC(=O)[C@@H]1CSSC[C@H](NC(=O)[C@@H](N)CCCCNC(=O)COCCOCCNC(=O)COCCOCCNC(=O)CC[C@H](NC(=O)CCCCCCCCCCCCCCCCC(=O)O)C(=O)O)C(=O)N[C@@H](CC(N)=O)C(=O)N[C@@H]([C@@H](C)O)C(=O)N[C@@H](C)C(=O)N[C@@H]([C@@H](C)O)C(=O)N1)[C@@H](C)O)C(C)C)C(=O)N[C@@H](CC(C)C)C(=O)N1CCC[C@H]1C(=O)N1CCC[C@H]1C(=O)N[C@H](C(=O)N[C@@H](CC(N)=O)C(=O)N[C@H](C(=O)NCC(=O)N[C@@H](CO)C(=O)N[C@@H](CC(N)=O)C(=O)N[C@H](C(=O)N[C@@H](Cc1ccc(O)cc1)C(N)=O)[C@@H](C)O)C(C)C)[C@@H](C)O` [Peptide 6] (H-K([AEEA-AEEA-γGlu-C18 diacid])CNTATCATQRLANFLVHSSNNFGPILPPTNVGSNTY-NH2; disulfide 2-7; N-terminus assumed), in data set [1], the EC50 is 310 pM. The half-life in data set [2] (iv) was 9.5 h. The compound also gave a half-life in data set [2] (sc) of 17.6 h. For the same compound, in data set [3], the fibril-forming tendency entry is “increases the fibril-forming tendency” and the “Time taken to detect increase” value is 15 h. Further, in data set [4], the “Ratio (selectivity hAMYR vs hCTR, ratio of EC50 values at the two receptors)” value was determined as 5 and the EC50 was 68 pM.
